Drawing on patent US10477864B2, “Microbiocidal quinoline (thio)carboxamide derivatives” (priority 2016, dated 2019), this text covers inhibition of growth, melting point and pest or weed control for 13 molecules.

Data set [1] concerns Glomerella lagenarium (Colletotrichum lagenarium). In words: Glomerella lagenarium (Colletotrichum lagenarium) / liquid culture (anthracnose). The class given is cell-based. As to conditions: Colletotrichum orbiculare; read-out: control of Glomerella lagenarium.
The subject of data set [2] is Botryotinia fuckeliana (Botrytis cinerea). Kind of data set: Botryotinia fuckeliana (Botrytis cinerea) / liquid culture (gray mould). Conditions: 72 h, read-out: control of Botryotinia fuckeliana. The class given is cell-based.
For another data set, the system named is Gaeumannomyces graminis. Kind of data set: Gaeumannomyces graminis / liquid culture (take-all of cereals). Type of data set: cell-based. Conditions: read-out: control of Gaeumannomyces graminis.
For another data set, the system named is Sclerotinia sclerotiorum. Kind of data set: Sclerotinia sclerotiorum / liquid culture (cottony rot). Conditions: 72 h, read-out: control of Sclerotinia sclerotiorum.
The test system of data set [3] is Fusarium culmorum. Kind of data set: whole plant or invertebrate. The class given is in vivo. As to conditions: in Triticum aestivum, read-out: control of Fusarium culmorum.
Data set [4] has as its system Magnaporthe grisea (Pyricularia oryzae). Kind of data set: microbe, parasite or virus in culture. Conditions: 72 h, read-out: control of Magnaporthe grisea. Type of data set: cell-based.
Data set [5] relates to Fusarium culmorum. In words: microbe, parasite or virus in culture. Type of data set: cell-based. As to conditions: read-out: control of Fusarium culmorum.
Data set [6] relates to Monographella nivalis (Microdochium nivale). In words: Monographella nivalis (Microdochium nivale) / liquid culture (foot rot cereals). As to conditions: 96 h, read-out: control of Monographella nivalis. Type of data set: cell-based.

Procedure for Sclerotinia sclerotiorum: Sclerotinia sclerotiorum/Liquid Culture (Cottony Rot)
Mycelia fragments of a newly grown liquid culture of the fungus are directly mixed into nutrient broth (Vogels broth). After placing a (DMSO) solution of test compound into a microtiter plate (96-well format) the nutrient broth containing the fungal material is added. The test plates are incubated at 24° C. and the inhibition of growth is determined photometrically 3-4 days after application.

Consider `CC(Cc1ccccc1)(CC(F)(F)F)NC(=O)c1cnc2c(F)cccc2c1` (stereo not drawn) [Compound E-39, N-(1-benzyl-3,3,3-trifluoro-1-methyl-propyl)-8-fluoro-quinoline-3-carboxamide], for which the melting point (in general, the temperature of the solid-liquid transition) lay within 158 to 160 °C. Also, in data set [1], the inhibition of growth at 200 ppm is not below 80%. For the same molecule, the inhibition of growth at 200 ppm in data set [2] is not below 80%. Moreover, in the data set on Gaeumannomyces graminis, the inhibition of growth at 200 ppm was not below 80%. In the data set on Sclerotinia sclerotiorum, the inhibition of growth at 20 ppm is not below 80%. Besides, the pest or weed control at 200 ppm with Fusarium culmorum [3] was not below 80%. The inhibition of growth at 200 ppm in data set [4] was not below 80%. Further, the inhibition of growth at 200 ppm in the data set on Fusarium culmorum [5] was not below 80%.

The molecule `CC(C)CC(Cc1ccccc1)NC(=O)c1cnc2c(F)cccc2c1` (stereo not drawn) [Compound E-29, N-(1-benzyl-3-methyl-butyl)-8-fluoro-quinoline-3-carboxamide] yielded a melting point of 136 to 139 °C. The inhibition of growth at 200 ppm in data set [1] was not below 80%. In addition, the inhibition of growth at 200 ppm in data set [2] was not below 80%. In addition, in the data set on Sclerotinia sclerotiorum, the inhibition of growth at 20 ppm was not below 80%. For the same molecule, the pest or weed control at 200 ppm with Fusarium culmorum [3] is not below 80%. In data set [4], the inhibition of growth at 200 ppm is not below 80%. Further, the inhibition of growth at 200 ppm in the data set on Fusarium culmorum [5] was not below 80%.

`CC(C)CC(C)(Cc1ccc(Cl)cc1)NC(=O)c1cnc2c(F)cccc2c1` (stereo not drawn) [Compound E-25] showed a melting point of 57 to 59 °C. In [1], the inhibition of growth at 200 ppm was not below 80%. In addition, in data set [2], the inhibition of growth at 200 ppm was not below 80%. The inhibition of growth at 200 ppm in the data set with Gaeumannomyces graminis is not below 80%. The inhibition of growth at 20 ppm in the data set with Sclerotinia sclerotiorum was not below 80%. For the same molecule, the pest or weed control at 200 ppm in the data set with Fusarium culmorum [3] was not below 80%. Besides, the inhibition of growth at 200 ppm in [4] was not below 80%. In addition, the inhibition of growth at 200 ppm in the data set with Fusarium culmorum [5] is not below 80%.

As to `C=C(C)C[C@](C)(Cc1ccccc1)NC(=O)c1cnc2c(F)cccc2c1` [Compound F-10, N-[(1R)-1-benzyl-1,3-dimethyl-but-3-enyl]-8-fluoro-quinoline-3-carboxamide], the inhibition of growth at 200 ppm (in data set [1]; in [2]; in the data set on Gaeumannomyces graminis; in data set [6]; in the data set with Fusarium culmorum [5]) was not below 80% in each case. In the data set with Sclerotinia sclerotiorum, the inhibition of growth at 20 ppm was not below 80%. Also, the pest or weed control at 200 ppm in the data set with Fusarium culmorum [3] was not below 80%.

`CC(C)C[C@](C)(Cc1ccccc1)NC(=O)c1cnc2c(F)cccc2c1` [Compound F-1, N-[(1R)-1-benzyl-1,3-dimethyl-butyl]-8-fluoro-quinoline-3-carboxamide]: the inhibition of growth at 200 ppm (in data set [1]; in data set [2]; in the data set on Gaeumannomyces graminis; in data set [6]; in data set [4]; in the data set on Fusarium culmorum [5]) was not below 80% in each case. Further, the inhibition of growth at 20 ppm with Sclerotinia sclerotiorum is not below 80%. For the same molecule, the pest or weed control at 200 ppm in the data set on Fusarium culmorum [3] was not below 80%.

With `C=C(C)CC(C)(Cc1ccccc1)NC(=O)c1cnc2ccccc2c1` (stereo not drawn) [Compound E-36, N-(1-benzyl-1,3-dimethyl-but-3-enyl)quinoline-3-carboxamide], the melting point lay in the range of 99 to 103 °C. Moreover, in data set [1], the inhibition of growth at 200 ppm is not below 80%. For the same molecule, in data set [2], the inhibition of growth at 200 ppm is not below 80%. Moreover, the inhibition of growth at 200 ppm in data set [6] was not below 80%. Further, the inhibition of growth at 20 ppm with Sclerotinia sclerotiorum was not below 80%. The pest or weed control at 200 ppm with Fusarium culmorum [3] was not below 80%. Further, the inhibition of growth at 200 ppm in data set [4] is not below 80%. The inhibition of growth at 200 ppm with Fusarium culmorum [5] is not below 80%.

`CC1(CC(C)(Cc2ccccc2)NC(=O)c2cnc3c(F)cccc3c2)CC1` (stereo not drawn) [Compound E-47, N-[1-benzyl-1-methyl-2-(1-methylcyclopropyl)ethyl]-8-fluoro-quinoline-3-carboxamide] had a melting point of 126 to 129 °C. For the same molecule, the inhibition of growth at 200 ppm in data set [1] is not below 80%. In addition, in data set [2], the inhibition of growth at 200 ppm was not below 80%. Besides, the inhibition of growth at 200 ppm in the data set with Gaeumannomyces graminis is not below 80%. The inhibition of growth at 20 ppm in the data set with Sclerotinia sclerotiorum was not below 80%. The inhibition of growth at 200 ppm in data set [4] was not below 80%. Further, the inhibition of growth at 200 ppm with Fusarium culmorum [5] is not below 80%.

The molecule `CC(C)CC(C)(Cc1ccccc1)NC(=S)c1cnc2c(F)cccc2c1` (stereo not drawn) [Compound E-114, N-(1-benzyl-1,3-dimethyl-butyl)-8-fluoro-quinoline-3-carbothioamide] registered a melting point of 150 to 153 °C. Further, the inhibition of growth at 200 ppm in [1] is not below 80%. Moreover, the inhibition of growth at 200 ppm in [2] is not below 80%. Besides, the inhibition of growth at 200 ppm in data set [6] was not below 80%. Moreover, the inhibition of growth at 20 ppm in the data set on Sclerotinia sclerotiorum is not below 80%. Moreover, the pest or weed control at 200 ppm in the data set with Fusarium culmorum [3] was not below 80%. In addition, the inhibition of growth at 200 ppm in [4] is not below 80%. The inhibition of growth at 200 ppm in the data set on Fusarium culmorum [5] is not below 80%.

`CC(C)(C)CC(C)(Cc1ccccc1)NC(=O)c1cnc2c(F)cccc2c1` (stereo not drawn) [Compound E-34, N-(1-benzyl-1,3,3-trimethyl-butyl)-8-fluoro-quinoline-3-carboxamide] displayed a melting point of 48 to 50 °C. The inhibition of growth at 200 ppm in data set [1] is not below 80%. The inhibition of growth at 200 ppm in data set [2] was not below 80%. Besides, in data set [6], the inhibition of growth at 200 ppm was not below 80%. Moreover, in the data set on Sclerotinia sclerotiorum, the inhibition of growth at 20 ppm was not below 80%. Besides, in data set [4], the inhibition of growth at 200 ppm was not below 80%. Also, the inhibition of growth at 200 ppm in the data set with Fusarium culmorum [5] was not below 80%.

As for `Cc1ccccc1CC(C)(CC(C)C)NC(=O)c1cnc2c(F)cccc2c1` (stereo not drawn) [Compound E-23, N-[1,3-dimethyl-1-(o-tolylmethyl)butyl]-8-fluoro-quinoline-3-carboxamide], the melting point fell in the range of 125 to 126 °C. In addition, the inhibition of growth at 200 ppm in [1] is not below 80%. Besides, in data set [2], the inhibition of growth at 200 ppm is not below 80%. Besides, in the data set with Gaeumannomyces graminis, the inhibition of growth at 200 ppm is not below 80%. Besides, in data set [6], the inhibition of growth at 200 ppm is not below 80%. For the same molecule, the pest or weed control at 200 ppm in the data set on Fusarium culmorum [3] is not below 80%. In addition, the inhibition of growth at 200 ppm in [4] was not below 80%. The inhibition of growth at 200 ppm with Fusarium culmorum [5] is not below 80%.

Regarding `Cc1c(C(=O)NC(C)(Cc2ccccc2)CC(C)C)cnc2c(F)cccc12` (stereo not drawn) [Compound E-15, N-(1-benzyl-1,3-dimethyl-butyl)-8-fluoro-4-methyl-quinoline-3-carboxamide], the melting point lay within 92 to 94 °C. In addition, the inhibition of growth at 200 ppm in data set [1] is not below 80%. Moreover, the inhibition of growth at 200 ppm in [2] is not below 80%. Moreover, the inhibition of growth at 20 ppm in the data set on Sclerotinia sclerotiorum is not below 80%. The pest or weed control at 200 ppm in the data set on Fusarium culmorum [3] was not below 80%. The inhibition of growth at 200 ppm in [4] was not below 80%. In the data set on Fusarium culmorum [5], the inhibition of growth at 200 ppm is not below 80%.

In turn, `CC(C)CC(C)(Cc1ccccc1)NC(=O)c1cnc2c(Cl)cccc2c1` (stereo not drawn) [Compound E-14, N-(1-benzyl-1,3-dimethyl-butyl)-8-chloro-quinoline-3-carboxamide] had a melting point of 147 to 148 °C. Besides, in data set [1], the inhibition of growth at 200 ppm is not below 80%. For the same molecule, in [2], the inhibition of growth at 200 ppm was not below 80%. The inhibition of growth at 200 ppm with Gaeumannomyces graminis was not below 80%. In data set [6], the inhibition of growth at 200 ppm was not below 80%. The inhibition of growth at 20 ppm in the data set with Sclerotinia sclerotiorum was not below 80%. Also, the inhibition of growth at 200 ppm in [4] is not below 80%. Also, the inhibition of growth at 200 ppm in the data set on Fusarium culmorum [5] is not below 80%.

On to `CC(C)CC(C)(Cc1ccccc1)NC(=O)c1cnc2c(F)c(F)ccc2c1` (stereo not drawn) [Compound E-48, N-(1-benzyl-1,3-dimethyl-butyl)-7,8-difluoro-quinoline-3-carboxamide], for which the melting point was 114 to 116 °C. Also, the inhibition of growth at 200 ppm in data set [1] is not below 80%. In [2], the inhibition of growth at 200 ppm is not below 80%. Besides, the inhibition of growth at 200 ppm in the data set on Gaeumannomyces graminis was not below 80%. Also, the inhibition of growth at 200 ppm in [6] is not below 80%. Moreover, in the data set with Fusarium culmorum [3], the pest or weed control at 200 ppm is not below 80%. The inhibition of growth at 200 ppm in data set [4] was not below 80%. In addition, the inhibition of growth at 200 ppm with Fusarium culmorum [5] is not below 80%.
